Data reported in US6720346B2, “Thiazole benzamide derivatives and pharmaceutical compositions for inhibiting cell proliferation” (Agouron Pharmaceuticals, Inc., priority 2001, dated 2004).
Structures can show the parent of a compound that is named as a salt.

Key:
HCT-116 cell line = test: Inhibition of cell growth, MTT tetrazolium salt assay; type: cell-based; details: for IC50: Homo sapiens, HCT-116, 120 h, MTT, three to five days
How it was run: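 Cells in McCoy's 5A medium were given 4 h before compound addition in 0.5% (v/v) DMSO, then incubated 3–5 days at 37 °C, 5% CO2. After 4 h with 0.2 mg/mL MTT, DMSO-solubilized formazan was read at 540 nm; 50% and 90% growth-inhibitory concentrations came from semi-log plots against vehicle controls.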

human CDK4/cyclin D3 = biological target: T1, human CDK4/cyclin D3 (Homo sapiens, UniProt P11802); test: Inhibition of CDK4/cyclin D retinoblastoma kinase activity (Ki; % inhibition); type: biochemical; details: for Ki: apparent Ki, CDK4/cyclin D3, Rb substrate
T1 construct: made in house; host or cells: insect cells co-infected with baculovirus vectors
T1 sequence (P11802 whole entry): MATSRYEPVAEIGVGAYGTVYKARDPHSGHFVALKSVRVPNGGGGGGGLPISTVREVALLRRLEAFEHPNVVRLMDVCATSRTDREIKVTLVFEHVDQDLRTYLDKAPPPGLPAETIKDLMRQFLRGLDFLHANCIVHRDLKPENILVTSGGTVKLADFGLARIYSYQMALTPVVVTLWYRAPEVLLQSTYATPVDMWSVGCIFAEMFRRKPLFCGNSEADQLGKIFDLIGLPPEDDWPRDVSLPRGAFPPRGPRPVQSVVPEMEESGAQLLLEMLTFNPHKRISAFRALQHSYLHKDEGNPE
T1 sequence (P30281 1-264 partner limits assumed): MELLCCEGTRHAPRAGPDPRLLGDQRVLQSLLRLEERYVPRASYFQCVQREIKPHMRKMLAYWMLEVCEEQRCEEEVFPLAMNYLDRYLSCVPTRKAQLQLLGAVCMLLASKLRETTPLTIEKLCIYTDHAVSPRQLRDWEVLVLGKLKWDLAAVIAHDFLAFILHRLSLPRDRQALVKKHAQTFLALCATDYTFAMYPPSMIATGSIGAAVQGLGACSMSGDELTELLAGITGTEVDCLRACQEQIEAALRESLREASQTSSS
How it was run: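 Radiometric filter-binding read-out: Rb residues 386-928 phosphorylated by 5 nM CDK4/cyclin D3(1-264) from baculovirus-infected insect cells, 25 μM ATP, HEPES pH 7.4, 30 °C. Run 20 min, or 60 min for tight-binding inhibitors. Screening at 30 nM theoretical compound; apparent Ki by competitive-inhibition fitting.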

CDK2/cyclin A = biological target: T2, CDK2/cyclin A (Homo sapiens, UniProt P24941); test: Inhibition of CDK2/cyclin A retinoblastoma kinase activity (Ki; % inhibition); type: biochemical; details: for Ki: apparent Ki, CDK2/cyclin A, Rb substrate
T2 construct: made in house; host or cells: CDK2: insect cells (baculovirus); cyclin A: E. coli
How it was run: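 Apparent Ki values came from fitting concentration-dependent activity data to competitive (or competitive tight-binding) models, and % inhibition from single 30 nM screens of library compounds. Activity was measured as ³²P/³³P incorporation from 25 μM ATP into an Rb substrate by 10 or 19 nM CDK2/delta cyclin A at 30 °C over 60–75 min, pH 7.4.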

[1] = HCT-116 cells, 0.25 μM compound

CDK4 % Inhibition at 0.03 μM (human CDK4/cyclin D3; 0.03 μM compound)	CDK2 % Inhibition at 0.03 μM (CDK2/cyclin A; 0.03 μM compound)	CDK4 % Inhibition at 0.03 μM (human CDK4/cyclin D3; at 0.03 μM)	CDK2 % Inhibition at 0.03 μM (CDK2/cyclin A; at 0.03 μM)	Structure (SMILES)	HCT-116 % Inhibition at 0.1 μM (HCT-116 cell line; HCT-116 cells, 0.1 μM compound)	HCT-116 % Inhibition at 0.25 μM (HCT-116 cell line; [1])	HCT-116 % Inhibition at 0.1 μM (HCT-116 cell line; HCT-116, at 0.1 μM)	HCT-116 % Inhibition at 0.25 μM (HCT-116 cell line; HCT-116, at 0.25 μM)	other results
1%	−27%	–	–	CCN(CC)CCCN(C)C(=O)c1ccc(Nc2nc(N)c(C(=O)c3c(F)cccc3F)s2)cc1 [Example G260]	30%	59%	–	–	–
2%	6%	–	–	Nc1nc(Nc2ccc(C(=O)NCc3ccccc3C(F)(F)F)cc2)sc1C(=O)c1c(F)cccc1F [Example G269]	19%	65%	–	–	–
17%	22%	–	–	CN(CCC(O)c1ccccc1)C(=O)c1ccc(Nc2nc(N)c(C(=O)c3c(F)cccc3F)s2)cc1 (centres unmarked) [Example G370]	19%	52%	–	–	–
–	–	–	–	Nc1nc(Nc2ccc(C(=O)NCCNc3ccccc3)c(O)c2)sc1C(=O)c1c(F)cccc1F [Example D1, 4-[4-Amino-5-(2,6-difluoro-benzoyl)-thiazol-2-ylamino]-2-hydroxy-N-(2-phenylamino-ethyl)-benzamide]	–	–	–	–	IC50 (HCT-116 cell line): 1000 nM; Ki (human CDK4/cyclin D3): 17 nM; Ki (CDK2/cyclin A): 9.4 nM
12%	19%	–	–	CSCCC(CO)NC(=O)c1ccc(Nc2nc(N)c(C(=O)c3c(F)cccc3F)s2)cc1 (centres unmarked) [Example G386]	28%	51%	–	–	–
42%	19%	–	–	NC(=O)C(CO)NC(=O)c1ccc(Nc2nc(N)c(C(=O)c3c(F)cccc3F)s2)cc1 (centres unmarked) [Example G198]	9%	44%	–	–	–
–	–	–	–	Nc1nc(Nc2ccc(C(=O)NC3Cc4ccccc4C3)cc2)sc1C(=O)c1c(F)cccc1F [Example A22, 4-[4-Amino-5-(2,6-difluoro-benzoyl)-thiazol-2-ylamino]-N-indan-2-yl-benzamide]	–	–	–	–	IC50 (HCT-116 cell line): 170 nM; Ki (human CDK4/cyclin D3): 5 nM; Ki (CDK2/cyclin A): 6 nM
–	–	25%	15%	CCN1CC(NC(=O)c2ccc(Nc3nc(N)c(C(=O)c4c(F)cccc4F)s3)cc2)CN1CC [Example G150]	–	–	0%	57%	–
–	–	15%	0%	CN(CC(O)CO)C(=O)c1ccc(Nc2nc(N)c(C(=O)c3c(F)cccc3F)s2)cc1 (centres unmarked) [Example G174]	–	–	28%	56%	–
–	–	–	–	CN1CCC[C@H]1CNC(=O)c1ccc(Nc2nc(N)c(C(=O)c3ccccc3F)s2)cc1 [Example A67, 4-{4-Amino-5-(2-fluoro-benzoyl)-thiazol-2-ylamino}-N-(1-methyl-pyrrolidin-2S-ylmethyl)-benzamide Trifluoroacetic Acid Salt]	–	–	–	–	IC50 (HCT-116 cell line): 77 nM; Ki (human CDK4/cyclin D3): 88 nM; Ki (CDK2/cyclin A): 13 nM
27%	30%	–	–	CC(O)c1cccc(NC(=O)c2ccc(Nc3nc(N)c(C(=O)c4c(F)cccc4F)s3)cc2)c1 (centres unmarked) [Example G222]	8%	61%	–	–	–
–	–	13%	−40%	Cc1nccc(-c2cccc(NC(=O)c3ccc(Nc4nc(N)c(C(=O)c5c(F)cccc5F)s4)cc3)c2)n1 [Example G87]	–	–	54%	78%	–
–	–	–	–	Nc1nc(Nc2ccc(C(=O)NC[C@@H]3CCCN3)cc2)sc1C(=O)c1c(F)cccc1F [Example A8, 4-[4-Amino-5-(2,6-difluoro-benzoyl)-thiazol-2-ylamino]-N-(pyrrolidin-2S-yl-methyl)-benzamide]	–	–	–	–	IC50 (HCT-116 cell line): 740 nM; Ki (human CDK4/cyclin D3): 5 nM; Ki (CDK2/cyclin A): 54 nM
22%	12%	–	–	Nc1nc(Nc2ccc(C(=O)NCCO)cc2)sc1C(=O)c1c(F)cccc1F [Example G326]	11%	13%	–	–	–
–	–	26%	20%	CN(CC#N)C(=O)c1ccc(Nc2nc(N)c(C(=O)c3c(F)cccc3F)s2)cc1 [Example G195]	–	–	17%	47%	–
–	–	–	–	Nc1nc(Nc2ccc(C(=O)NC3CCN(Cc4ccccc4)CC3)cc2)sc1C(=O)c1c(F)cccc1F [Example A13, 4-[4-Amino-5-(2,6-difluoro-benzoyl)-thiazol-2-ylamino]-N-(1-benzyl-piperidin-4-yl)-benzamide]	–	–	–	–	IC50 (HCT-116 cell line): 210 nM; Ki (human CDK4/cyclin D3): 9 nM; Ki (CDK2/cyclin A): 79 nM
–	–	18%	19%	CC(=O)NC1CCN(C(=O)c2ccc(Nc3nc(N)c(C(=O)c4c(F)cccc4F)s3)cc2)C1 (centres unmarked) [Example G73]	–	–	–	56%	–
–	–	21%	22%	Nc1nc(Nc2ccc(C(=O)N[C@@H]3CCc4ccccc43)cc2)sc1C(=O)c1c(F)cccc1F [Example G176]	–	–	32%	62%	–
26%	18%	–	–	COc1ccc(CCNC(=O)c2ccc(Nc3nc(N)c(C(=O)c4c(F)cccc4F)s3)cc2)cc1 [Example G238]	22%	58%	–	–	–
–	–	−4%	−20%	CC(C)C(C)NC(=O)c1ccc(Nc2nc(N)c(C(=O)c3c(F)cccc3F)s2)cc1 (centres unmarked) [Example G89]	–	–	30%	59%	–
8%	−3%	–	–	Cc1cc(C)cc(NC(=O)c2ccc(Nc3nc(N)c(C(=O)c4c(F)cccc4F)s3)cc2)c1 [Example G297]	0%	45%	–	–	–
–	–	17%	6%	Nc1nc(Nc2ccc(C(=O)NC3CCCCC3)cc2)sc1C(=O)c1c(F)cccc1F [Example G139]	–	–	0%	56%	–
–	–	17%	7%	COc1cc(NC(=O)c2ccc(Nc3nc(N)c(C(=O)c4c(F)cccc4F)s3)cc2)ccc1C [Example G138]	–	–	0%	65%	–
46%	−1%	–	–	Nc1nc(Nc2ccc(C(=O)N3CCN(c4ccncc4)CC3)cc2)sc1C(=O)c1c(F)cccc1F [Example G311]	5%	43%	–	–	–
–	–	10%	−7%	CC(CNC(=O)c1ccc(Nc2nc(N)c(C(=O)c3c(F)cccc3F)s2)cc1)N(C)C (centres unmarked) [Example G92]	–	–	85%	98%	–
–	–	4%	22%	C[C@@H](NC(=O)c1ccc(Nc2nc(N)c(C(=O)c3c(F)cccc3F)s2)cc1)c1ccccc1 [Example G166]	–	–	8%	90%	–
–	–	5%	4%	Nc1nc(Nc2ccc(C(=O)Nc3ccccc3)cc2)sc1C(=O)c1c(F)cccc1F [Example G7]	–	–	–	80%	–
